Residues, ends and D or L forms follow the SMILES beside them. No end group written: not given here. *: point of attachment. Succinimide(1-Et,3-yl) = CCN1C(=O)CC(*)C1=O
biological target: T1, human CRHR2 (Homo sapiens, UniProt Q13324); assay: cAMP assay in h-CRHR2 transfected SK-N-MC cells; format: cell-based; settings: Table 12; Hill slope
T1 construct: expressed in transfected cells
T1 sequence (Q13324 1-411): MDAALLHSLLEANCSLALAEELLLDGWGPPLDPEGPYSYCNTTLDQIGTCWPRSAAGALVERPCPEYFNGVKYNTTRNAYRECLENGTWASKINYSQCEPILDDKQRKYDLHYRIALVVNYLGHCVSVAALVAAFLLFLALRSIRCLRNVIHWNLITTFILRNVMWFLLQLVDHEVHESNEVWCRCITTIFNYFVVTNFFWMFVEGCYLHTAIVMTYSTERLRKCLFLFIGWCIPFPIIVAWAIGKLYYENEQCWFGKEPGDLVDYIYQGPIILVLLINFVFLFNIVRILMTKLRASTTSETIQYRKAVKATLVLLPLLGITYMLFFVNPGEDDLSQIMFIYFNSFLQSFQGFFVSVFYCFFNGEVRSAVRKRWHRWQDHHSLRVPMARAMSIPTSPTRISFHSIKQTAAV
Outline: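 Intracellular cAMP was read by competition with [125I]-cAMP for an anti-cAMP antibody after HCl lysis of human CRHR2-transfected SK-N-MC cells. Cells had been exposed to peptide, 1 pM to 10 μM, for 60 min at 37 °C in IBMX (10 μM) buffer. A50 and pA50 came from Hill fits; Log DR was computed against h-SCP within each batch.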

Point of comparison: “KFTLSLDVPTNIMNLLFNIAKAKNLRAQAAANAHLMAQI-NH2 [SEQ ID NO: 107, KFTLSLDVPTNIMNLLFNIAKAKNLRAQAAANAHLMAQI-NH2]”, nH 1.07. Against it:
- LSLDVPTNIMNLLFNIAKAKNLRAQAAANAHLMAQI-NH2 [SEQ ID NO: 109, LSLDVPINIMNLLFNIAKAKNLRAQAAANAHLMAQI-NH2] — lower, 0.74

same assay, conditions: Table 13; h-SCP control pA50 minus test compound pA50 within same assay batch

Point of comparison: “TKFTLSLDVPTCIMNLLFNIAKAKNLRAQAAANAHLMAQI-NH2 [SEQ ID NO: 13, TKFTLSLDVPTCIMNLLFNIAKAKNLRAQAAANAHLMAQI-NH2]”, “Log DR” value −0.01. Against it:
- CC[C@H](C)[C@H](NC(=O)[C@H](CCC(N)=O)NC(=O)[C@H](C)NC(=O)[C@H](CCSC)NC(=O)[C@H](CC(C)C)NC(=O)[C@H](Cc1c[nH]cn1)NC(=O)[C@H](C)NC(=O)[C@H](CC(N)=O)NC(=O)[C@H](C)NC(=O)[C@H](C)NC(=O)[C@H](C)NC(=O)[C@H](CCC(N)=O)NC(=O)[C@H](C)NC(=O)[C@H](CCCNC(=N)N)NC(=O)[C@H](CC(C)C)NC(=O)[C@H](CC(N)=O)NC(=O)[C@H](CCCCN)NC(=O)[C@H](C)NC(=O)[C@H](CCCCN)NC(=O)[C@H](C)NC(=O)[C@@H](NC(=O)[C@H](CC(N)=O)NC(=O)[C@H](Cc1ccccc1)NC(=O)[C@H](CC(C)C)NC(=O)[C@H](CSC1CC(=O)N(CC)C1=O)NC(=O)[C@H](CC(N)=O)NC(=O)[C@H](CCSC)NC(=O)[C@@H](NC(=O)[C@H](CC(N)=O)NC(=O)[C@@H](NC(=O)[C@@H]1CCCN1C(=O)[C@@H](NC(=O)[C@H](CC(=O)O)NC(=O)[C@H](CC(C)C)NC(=O)[C@H](CO)NC(=O)[C@H](CC(C)C)NC(=O)[C@@H](NC(=O)[C@H](Cc1ccccc1)NC(=O)[C@H](CCCCN)NC(=O)[C@@H](N)[C@@H](C)O)[C@@H](C)O)C(C)C)[C@@H](C)O)[C@@H](C)CC)[C@@H](C)CC)C(N)=O (stereo partly shown) [SEQ ID NO: 54, TKFTL SLDVP TNIMN C(-NES)LFNI AKAKN LRAQA AANAH LMAQI-NH2] (H-TKFTLSLDVPTNIMNC(Succinimide(1-Et,3-yl))LFNIAKAKNLRAQAAANAHLMAQI-NH2; N-terminus assumed) — within 0.2 log units, −0.08
- CKFTLSLDVPTNIMNLLFNIAKAKNLRAQAAANAHLMAQI-NH2 [SEQ ID NO: 2, CKFTLSLDVPTNIMNLLFNIAKAKNLRAQAAANAHLMAQI-NH2] — higher, 0.72
- TCFTLSLDVPTNIMNLLFNIAKAKNLRAQAAANAHLMAQI-NH2 [SEQ ID NO: 3, TCFTLSLDVPTNIMNLLFNIAKAKNLRAQAAANAHLMAQI-NH2] — higher, 0.72
- TKCTLSLDVPTNIMNLLFNIAKAKNLRAQAAANAHLMAQI-NH2 [SEQ ID NO: 4, TKCTLSLDVPTNIMNLLFNIAKAKNLRAQAAANAHLMAQI-NH2] — higher, 1.03
- TKFCLSLDVPTNIMNLLFNIAKAKNLRAQAAANAHLMAQI-NH2 [SEQ ID NO: 5, TKFCLSLDVPTNIMNLLFNIAKAKNLRAQAAANAHLMAQI-NH2] — higher, 0.76
- TKFTCSLDVPTNIMNLLFNIAKAKNLRAQAAANAHLMAQI-NH2 [SEQ ID NO: 6, TKFTCSLDVPTNIMNLLFNIAKAKNLRAQAAANAHLMAQI-NH2] — higher, 0.61
- TKFTLCLDVPTNIMNLLFNIAKAKNLRAQAAANAHLMAQI-NH2 [SEQ ID NO: 7, TKFTLCLDVPTNIMNLLFNIAKAKNLRAQAAANAHLMAQI-NH2] — higher, 2.08
- TKFTLSCDVPTNIMNLLFNIAKAKNLRAQAAANAHLMAQI-NH2 [SEQ ID NO: 8, TKFTLSCDVPTNIMNLLFNIAKAKNLRAQAAANAHLMAQI-NH2] — higher, 2.86
- TKFTLSLCVPTNIMNLLFNIAKAKNLRAQAAANAHLMAQI-NH2 [SEQ ID NO: 9, TKFTLSLCVPTNIMNLLFNIAKAKNLRAQAAANAHLMAQI-NH2] — higher, 1.89
- TKFTLSLDCPTNIMNLLFNIAKAKNLRAQAAANAHLMAQI-NH2 [SEQ ID NO: 10, TKFTLSLDCPTNIMNLLFNIAKAKNLRAQAAANAHLMAQI-NH2] — higher, 1.30
- TKFTLSLDVCTNIMNLLFNIAKAKNLRAQAAANAHLMAQI-NH2 [SEQ ID NO: 11, TKFTLSLDVCTNIMNLLFNIAKAKNLRAQAAANAHLMAQI-NH2] — higher, 0.82
- TKFTLSLDVPCNIMNLLFNIAKAKNLRAQAAANAHLMAQI-NH2 [SEQ ID NO: 12, TKFTLSLDVPCNIMNLLFNIAKAKNLRAQAAANAHLMAQI-NH2] — higher, 1.72
- TKFTLSLDVPTNICNLLFNIAKAKNLRAQAAANAHLMAQI-NH2 [SEQ ID NO: 15, TKFTLSLDVPTNICNLLFNIAKAKNLRAQAAANAHLMAQI-NH2] — higher, 0.90
- TKFTLSLDVPTNIMCLLFNIAKAKNLRAQAAANAHLMAQI-NH2 [SEQ ID NO: 16, TKFTLSLDVPTNIMCLLFNIAKAKNLRAQAAANAHLMAQI-NH2] — higher, 0.76
- TKFTLSLDVPTNIMNCLFNIAKAKNLRAQAAANAHLMAQI-NH2 [SEQ ID NO: 17, TKFTLSLDVPTNIMNCLFNIAKAKNLRAQAAANAHLMAQI-NH2] — within 0.2 log units, 0.02
- TKFTLSLDVPTNIMNLCFNIAKAKNLRAQAAANAHLMAQI-NH2 [SEQ ID NO: 18, TKFTLSLDVPTNIMNLCFNIAKAKNLRAQAAANAHLMAQI-NH2] — higher, 1.11
- TKFTLSLDVPTNIMNLLCNIAKAKNLRAQAAANAHLMAQI-NH2 [SEQ ID NO: 19, TKFTLSLDVPTNIMNLLCNIAKAKNLRAQAAANAHLMAQI-NH2] — higher, 1.67
- TKFTLSLDVPTNIMNLLFCIAKAKNLRAQAAANAHLMAQI-NH2 [SEQ ID NO: 20, TKFTLSLDVPTNIMNLLFCIAKAKNLRAQAAANAHLMAQI-NH2] — higher, 0.52
- TKFTLSLDVPTNIMNLLFNCAKAKNLRAQAAANAHLMAQI-NH2 [SEQ ID NO: 21, TKFTLSLDVPTNIMNLLFNCAKAKNLRAQAAANAHLMAQI-NH2] — higher, 0.77
- TKFTLSLDVPTNIMNLLFNIACAKNLRAQAAANAHLMAQI-NH2 [SEQ ID NO: 23, TKFTLSLDVPTNIMNLLFNIACAKNLRAQAAANAHLMAQI-NH2] — higher, 1.13

“TKFTLSLDVPTNCMNLLFNIAKAKNLRAQAAANAHLMAQI-NH2 [SEQ ID NO: 14, TKFTLSLDVPTNCMNLLFNIAKAKNLRAQAAANAHLMAQI-NH2]” was tested, and the “Log DR” value was >2.

same assay, conditions: Table 14

“TKFTLSLDVPTNIMNLLFNIAKAKNLRC(-IA-PEG MW20000)QA AANAH LMAQI-NH2 (TKFTLSLDVPTNIMNLLFNIAKAKNLRC(IA‑PEG 20 kDa)QAAANAHLMAQI-NH2) [SEQ ID NO: 102]” was tested, and the pA50 was 8.15.

same assay, conditions: Table 14; % of the maximum response obtained to h-SCP

With “TKFTLSLDVPTNIMNLLFNIAKAKNLRC(-IA-PEG MW20000)QA AANAH LMAQI-NH2 (TKFTLSLDVPTNIMNLLFNIAKAKNLRC(IA‑PEG 20 kDa)QAAANAHLMAQI-NH2) [SEQ ID NO: 102]” the αmax was 111.1%.

same assay, conditions: Table 14; Hill slope

In the case of “TKFTLSLDVPTNIMNLLFNIAKAKNLRC(-IA-PEG MW20000)QA AANAH LMAQI-NH2 (TKFTLSLDVPTNIMNLLFNIAKAKNLRC(IA‑PEG 20 kDa)QAAANAHLMAQI-NH2) [SEQ ID NO: 102]”, the nH is reported as 1.05.

same assay, conditions: in the presence of 100 nM anti-sauvagine-30; maximal response constrained to 100%

For “TKFTLSLDVPTNIMNLLFNIAKAKNLRC(-IA-PEG MW20000)QA AANAH LMAQI-NH2 (TKFTLSLDVPTNIMNLLFNIAKAKNLRC(IA‑PEG 20 kDa)QAAANAHLMAQI-NH2) [SEQ ID NO: 102]”, the pA50 approximate value was ~6.89.

same assay, conditions: tested as antagonists of h-SCP at 10 μM; read-out: receptor affinity (KA)

“DVPTNIMNLLFNIAKAKNLRAQAAANAHLMAQI-NH2 [SEQ ID NO: 112, DVPTNIMNLLFNIAKAKNLRAQAAANAHLMAQI-NH2]” and “LDVPTNIMNLLFNIAKAKNLRAQAAANAHLMAQI-NH2 [SEQ ID NO: 111, LDVPTNIMNLLFNIAKAKNLRAQAAANAHLMAQI-NH2]” cannot be ordered by Kd: < 10 µM for the first, < 10 µM for the second.

For “SLDVPTNIMNLLFNIAKAKNLRAQAAANAHLMAQI-NH2 [SEQ ID NO: 110, SLDVPTNIMNLLFNIAKAKNLRAQAAANAHLMAQI-NH2]”, the Kd was < 10 µM.

— patent publication US10040838B2, “CRHR2 peptide agonists and uses thereof” (JANSSEN PHARMACEUTICA NV, priority 2008, dated 2018)
